Experimental data: PubChem BioAssay AID2060484 (Molecular Pharmacology Branch, DTP, NCI, 2025)

Tested on: SUM149PT spheroids with HUVEC/MSC, viability
Experiment: Anticancer human tumor SUM149PT cell line growth inhibition [GQUAD];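 further: spheroids exposed to drugs for seven days before readout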;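 on viability, T/C: percent viability relative to DMSO vehicle control taken as 100%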
Details: for IC50: curve of first compound; for viability, T/C: stronger effect = lower value
Procedure, shortened: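 Viability of tumor cells grown as complex spheroids with endothelial and stromal cells, exposed to drug combinations. Top concentration at or near clinical Cmax (else 10 microM), diluted in half-log increments.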

[1] = second compound 0.0316 µM, first compound 0.0316 µM
[2] = second compound 0.0316 µM, first compound 0.316 µM
[3] = second compound 0.1 µM, first compound 0.0316 µM
[4] = second compound 0.1 µM, first compound 0.316 µM
[5] = second compound 0.316 µM, first compound 0.0316 µM
[6] = second compound 0.316 µM, first compound 0.316 µM
[7] = second compound 1 µM, first compound 0.0316 µM
[8] = second compound 1 µM, first compound 0.316 µM
[9] = second compound 3.16 µM, first compound 0.0316 µM
[10] = second compound 3.16 µM, first compound 0.316 µM
[11] = second compound 10 µM, first compound 0.0316 µM
[12] = second compound 10 µM, first compound 0.316 µM
[13] = second compound 0.0316 µM, first compound 0.1 µM
[14] = second compound 0.0316 µM, first compound 1 µM
[15] = second compound 0.0316 µM, first compound 3.16 µM
[16] = second compound 0.0316 µM, first compound 10 µM
[17] = second compound 0.1 µM, first compound 0.1 µM
[18] = second compound 0.1 µM, first compound 1 µM
[19] = second compound 0.1 µM, first compound 3.16 µM
[20] = second compound 0.1 µM, first compound 10 µM
[21] = second compound 0.316 µM, first compound 0.1 µM
[22] = second compound 0.316 µM, first compound 1 µM
[23] = second compound 0.316 µM, first compound 3.16 µM
[24] = second compound 0.316 µM, first compound 10 µM
[25] = second compound 1 µM, first compound 0.1 µM
[26] = second compound 1 µM, first compound 1 µM
[27] = second compound 1 µM, first compound 3.16 µM
[28] = second compound 1 µM, first compound 10 µM
[29] = second compound 3.16 µM, first compound 0.1 µM
[30] = second compound 3.16 µM, first compound 1 µM
[31] = second compound 3.16 µM, first compound 3.16 µM
[32] = second compound 3.16 µM, first compound 10 µM
[33] = second compound 10 µM, first compound 0.1 µM
[34] = second compound 10 µM, first compound 1 µM
[35] = second compound 10 µM, first compound 3.16 µM
[36] = second compound 10 µM, first compound 10 µM

Cn1ncnc1[C@H]1c2n[nH]c(=O)c3cc(F)cc(c23)N[C@@H]1c1ccc(F)cc1 + Cc1[nH]c2ccc(F)cc2c1-c1nc2c3cccnc3c3ncccc3c2[nH]1
IC50 (second compound 0.0316 µM): > 316 nM | IC50 (second compound 0.1 µM): > 316 nM | IC50 (second compound 0.316 µM): 305 nM | IC50 (second compound 1 µM): > 316 nM | IC50 (second compound 3.16 µM): > 316 nM | IC50 (second compound 10 µM): > 316 nM | viability, T/C (second compound 0.0316 µM, first compound 0.000999 µM): 105% | viability, T/C (second compound 0.0316 µM, first compound 0.00316 µM): 93.4% | viability, T/C (second compound 0.0316 µM, first compound 0.00999 µM): 103% | viability, T/C [1]: 88% | viability, T/C (second compound 0.0316 µM, first compound 0.0999 µM): 69.8% | viability, T/C [2]: 57.3% | viability, T/C (second compound 0.1 µM, first compound 0.000999 µM): 90.4% | viability, T/C (second compound 0.1 µM, first compound 0.00316 µM): 96.2% | viability, T/C (second compound 0.1 µM, first compound 0.00999 µM): 87.6% | viability, T/C [3]: 86.9% | viability, T/C (second compound 0.1 µM, first compound 0.0999 µM): 73.2% | viability, T/C [4]: 56.7% | viability, T/C (second compound 0.316 µM, first compound 0.000999 µM): 109% | viability, T/C (second compound 0.316 µM, first compound 0.00316 µM): 90.3% | viability, T/C (second compound 0.316 µM, first compound 0.00999 µM): 95.2% | viability, T/C [5]: 89.8% | viability, T/C (second compound 0.316 µM, first compound 0.0999 µM): 65.4% | viability, T/C [6]: 50% | viability, T/C (second compound 1 µM, first compound 0.000999 µM): 94.6% | viability, T/C (second compound 1 µM, first compound 0.00316 µM): 94.5% | viability, T/C (second compound 1 µM, first compound 0.00999 µM): 96.3% | viability, T/C [7]: 88% | viability, T/C (second compound 1 µM, first compound 0.0999 µM): 66% | viability, T/C [8]: 51% | viability, T/C (second compound 3.16 µM, first compound 0.000999 µM): 88.6% | viability, T/C (second compound 3.16 µM, first compound 0.00316 µM): 90.4% | viability, T/C (second compound 3.16 µM, first compound 0.00999 µM): 96.2% | viability, T/C [9]: 78% | viability, T/C (second compound 3.16 µM, first compound 0.0999 µM): 67.7% | viability, T/C [10]: 50% | viability, T/C (second compound 10 µM, first compound 0.000999 µM): 85.3% | viability, T/C (second compound 10 µM, first compound 0.00316 µM): 77.7% | viability, T/C (second compound 10 µM, first compound 0.00999 µM): 88.8% | viability, T/C [11]: 81.8% | viability, T/C (second compound 10 µM, first compound 0.0999 µM): 65.4% | viability, T/C [12]: 50.9%

COc1ccc([C@@H](O)c2cc(-c3ncnc4cc(N5CCOCC5)ccc34)c(F)cc2Cl)nn1 + Cc1[nH]c2ccc(F)cc2c1-c1nc2c3cccnc3c3ncccc3c2[nH]1
IC50 (second compound 0.0316 µM): 761 nM | IC50 (second compound 0.1 µM): 1070 nM | IC50 (second compound 0.316 µM): 1130 nM | IC50 (second compound 1 µM): 1160 nM | IC50 (second compound 3.16 µM): 1050 nM | IC50 (second compound 10 µM): 874 nM | viability, T/C [1]: 95.7% | viability, T/C [13]: 90.1% | viability, T/C [2]: 65.6% | viability, T/C [14]: 45.8% | viability, T/C [15]: 29.9% | viability, T/C [16]: 23.9% | viability, T/C [3]: 92.9% | viability, T/C [17]: 92.9% | viability, T/C [4]: 79.3% | viability, T/C [18]: 52.3% | viability, T/C [19]: 29.4% | viability, T/C [20]: 27.6% | viability, T/C [5]: 104% | viability, T/C [21]: 87.3% | viability, T/C [6]: 83% | viability, T/C [22]: 47.1% | viability, T/C [23]: 39.4% | viability, T/C [24]: 28.7% | viability, T/C [7]: 102% | viability, T/C [25]: 102% | viability, T/C [8]: 82.9% | viability, T/C [26]: 52.4% | viability, T/C [27]: 32.5% | viability, T/C [28]: 23.9% | viability, T/C [9]: 95.2% | viability, T/C [29]: 78.9% | viability, T/C [10]: 76.7% | viability, T/C [30]: 49.8% | viability, T/C [31]: 31.8% | viability, T/C [32]: 25.9% | viability, T/C [11]: 89.8% | viability, T/C [33]: 82.6% | viability, T/C [12]: 71.7% | viability, T/C [34]: 46.3% | viability, T/C [35]: 30.9% | viability, T/C [36]: 23.3%

O=C(c1cc(Cc2n[nH]c(=O)c3ccccc23)ccc1F)N1CCN(C(=O)C2CC2)CC1 + Cc1[nH]c2ccc(F)cc2c1-c1nc2c3cccnc3c3ncccc3c2[nH]1
IC50 (second compound 0.0316 µM): > 10000 nM | IC50 (second compound 0.1 µM): > 10000 nM | IC50 (second compound 0.316 µM): > 10000 nM | IC50 (second compound 1 µM): > 10000 nM | IC50 (second compound 3.16 µM): > 10000 nM | IC50 (second compound 10 µM): > 10000 nM | viability, T/C [1]: 105% | viability, T/C [13]: 97.4% | viability, T/C [2]: 98.5% | viability, T/C [14]: 103% | viability, T/C [15]: 93.2% | viability, T/C [16]: 80.3% | viability, T/C [3]: 102% | viability, T/C [17]: 96.8% | viability, T/C [4]: 96.5% | viability, T/C [18]: 99.8% | viability, T/C [19]: 108% | viability, T/C [20]: 76.9% | viability, T/C [5]: 93.8% | viability, T/C [21]: 95.1% | viability, T/C [6]: 103% | viability, T/C [22]: 111% | viability, T/C [23]: 96.6% | viability, T/C [24]: 74.8% | viability, T/C [7]: 99.9% | viability, T/C [25]: 97.6% | viability, T/C [8]: 108% | viability, T/C [26]: 100% | viability, T/C [27]: 100% | viability, T/C [28]: 69.2% | viability, T/C [9]: 89.9% | viability, T/C [29]: 96.4% | viability, T/C [10]: 98.4% | viability, T/C [30]: 99.6% | viability, T/C [31]: 95.8% | viability, T/C [32]: 75.2% | viability, T/C [11]: 86.8% | viability, T/C [33]: 86.6% | viability, T/C [12]: 82.4% | viability, T/C [34]: 101% | viability, T/C [35]: 102% | viability, T/C [36]: 73.5%

C#Cc1c(F)ccc2cc(O)cc(-c3ncc4c(N5CC6CCC(C5)N6)nc(OCC56CCCN5CC(F)C6)nc4c3F)c12 (stereo not drawn) + Cc1cnc(CNC(=O)c2c(=O)c3ccc(N4CCCN(C)CC4)nc3n3c2sc2ccccc23)cn1
IC50 (second compound 0.0316 µM): 545 nM | IC50 (second compound 0.1 µM): 243 nM | IC50 (second compound 0.316 µM): 42.2 nM | IC50 (second compound 1 µM): < 31.6 nM | IC50 (second compound 3.16 µM): < 31.6 nM | IC50 (second compound 10 µM): < 31.6 nM | viability, T/C [1]: 90.1% | viability, T/C [13]: 65.5% | viability, T/C [2]: 66.2% | viability, T/C [14]: 35.1% | viability, T/C [15]: 36.6% | viability, T/C [16]: 29% | viability, T/C [3]: 51.6% | viability, T/C [17]: 61.4% | viability, T/C [4]: 45.2% | viability, T/C [18]: 38.9% | viability, T/C [19]: 30.7% | viability, T/C [20]: 25.5% | viability, T/C [5]: 48.6% | viability, T/C [21]: 52.2% | viability, T/C [6]: 37.9% | viability, T/C [22]: 34.1% | viability, T/C [23]: 28.1% | viability, T/C [24]: 22.9% | viability, T/C [7]: 34.1% | viability, T/C [25]: 38.6% | viability, T/C [8]: 33.4% | viability, T/C [26]: 27.1% | viability, T/C [27]: 24.2% | viability, T/C [28]: 20.1% | viability, T/C [9]: 35.5% | viability, T/C [29]: 32.1% | viability, T/C [10]: 31.4% | viability, T/C [30]: 25.6% | viability, T/C [31]: 23.3% | viability, T/C [32]: 19.6% | viability, T/C [11]: 0.13% | viability, T/C [33]: 2.68% | viability, T/C [12]: 11.3% | viability, T/C [34]: 0.63% | viability, T/C [35]: 2.15% | viability, T/C [36]: 0.92%
